Legend:
Assay type in all cases: in vivo
[1] = test system: Italian ryegrass (Lolium multiflorum); test: Test A postemergence, visual injury rating; details: 0 is no effect, 100 is complete control; for pest or weed control at 500 g/ha: 500 g ai/ha
Outline: (§1)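 Scoring: eye-based comparison with untreated controls, 0 for no effect through 100 for complete control, at about day 10. Treatments: directed soil spray preemergence; foliar spray postemergence on 2–10 cm plants at the one- to two-leaf stage. Medium: loam soil with sand.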

[2] = test system: barnyardgrass (Echinochloa crus-galli); test: Test A postemergence, visual injury rating; details: Echinochloa crus-galli, post-emergence, 240 h, 0 is no effect, 100 is complete control, read-out: Barnyardgrass plant response rating (0 to 100 scale); for pest or weed control at 125 g/ha: 125 g ai/ha; for pest or weed control at 500 g/ha: 500 g ai/ha
Outline: as §1

[3] = test system: blackgrass (Alopecurus myosuroides); test: Test A postemergence, visual injury rating; details: Alopecurus myosuroides, post-emergence, 240 h, 0 is no effect, 100 is complete control, read-out: Blackgrass plant response rating (0 to 100 scale); for pest or weed control at 125 g/ha: 125 g ai/ha; for pest or weed control at 500 g/ha: 500 g ai/ha
Outline: as §1

[4] = test system: corn (Zea mays); test: Test A postemergence, visual injury rating; details: Zea mays, post-emergence, 240 h, 0 is no effect, 100 is complete control, read-out: Corn plant response rating (0 to 100 scale); for plant injury at 125 g/ha: 125 g ai/ha; for plant injury at 500 g/ha: 500 g ai/ha
Outline: as §1

[5] = test system: galium (catchweed bedstraw, Galium aparine); test: Test A postemergence, visual injury rating; details: Galium, post-emergence, 240 h, 0 is no effect, 100 is complete control, read-out: Galium plant response rating (0 to 100 scale); for pest or weed control at 125 g/ha: 125 g ai/ha; for pest or weed control at 500 g/ha: 500 g ai/ha
Outline: as §1

[6] = test system: giant foxtail (Setaria faberii); test: Test A postemergence, visual injury rating; details: Setaria faberi, post-emergence, 240 h, 0 is no effect, 100 is complete control, read-out: Foxtail, Giant plant response rating (0 to 100 scale); for pest or weed control at 125 g/ha: 125 g ai/ha; for pest or weed control at 500 g/ha: 500 g ai/ha
Outline: as §1

[7] = test system: kochia (Kochia scoparia); test: Test A postemergence, visual injury rating; details: 0 is no effect, 100 is complete control; for pest or weed control at 500 g/ha: 500 g ai/ha
Outline: as §1

[8] = test system: pigweed (Amaranthus retroflexus); test: Test A postemergence, visual injury rating; details: 0 is no effect, 100 is complete control; for pest or weed control at 500 g/ha: 500 g ai/ha
Outline: as §1

[9] = test system: ragweed (common ragweed, Ambrosia elatior); test: Test A postemergence, visual injury rating; details: 0 is no effect, 100 is complete control; for pest or weed control at 500 g/ha: 500 g ai/ha
Outline: as §1

[10] = test system: wheat (Triticum aestivum); test: Test A postemergence, visual injury rating; details: 0 is no effect, 100 is complete control; for plant injury at 500 g/ha: 500 g ai/ha
Outline: as §1

[11] = test system: barnyardgrass (Echinochloa crus-galli); test: Test B flooded paddy test, plant response rating; details: Echinochloa crus-galli, 312 h; 250 g ai/ha; Flood; scale of 0 to 100 where 0 is no effect and 100 is complete control; 13 to 15 days
Outline: (§2)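 Ratings were visual and made relative to untreated controls after 13 to 15 greenhouse days.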

[12] = test system: ducksalad (Heteranthera limosa); test: Test B flooded paddy test, plant response rating; details: Heteranthera limosa, 312 h; 250 g ai/ha; Flood; scale of 0 to 100 where 0 is no effect and 100 is complete control; 13 to 15 days
Outline: as §2

[13] = test system: rice (Oryza sativa); test: Test B flooded paddy test, plant response rating; details: Oryza sativa, 312 h; 250 g ai/ha; Flood; scale of 0 to 100 where 0 is no effect and 100 is complete control; 13 to 15 days
Outline: as §2

[14] = test system: sedge, umbrella (small-flower umbrella sedge, Cyperus difformis); test: Test B flooded paddy test, plant response rating; details: Cyperus difformis, 312 h; 250 g ai/ha; Flood; scale of 0 to 100 where 0 is no effect and 100 is complete control; 13 to 15 days
Outline: as §2

[15] = test system: barnyardgrass (Echinochloa crus-galli); test: Test C preemergence, plant response rating; details: Echinochloa crus-galli, pre-emergence, Preemergence; for pest or weed control at 62 g/ha: 62 g ai/ha; for pest or weed control at 62 g/ha / pest or weed control at 125 g/ha: scale of 0 to 100; for pest or weed control at 125 g/ha: 125 g ai/ha; for pest or weed control at 16 g/ha: 16 g ai/ha; for pest or weed control at 16 g/ha / pest or weed control at 31 g/ha: scale 0 to 100; for pest or weed control at 31 g/ha: 31 g ai/ha
[16] = test system: galium (catchweed bedstraw, Galium aparine); test: Test C postemergence, plant response rating; details: Galium, post-emergence; for pest or weed control at 16 g/ha: 16 g ai/ha; for pest or weed control at 16 g/ha / pest or weed control at 31 g/ha: scale 0 to 100; for pest or weed control at 31 g/ha: 31 g ai/ha; for pest or weed control at 62 g/ha: 62 g ai/ha; for pest or weed control at 62 g/ha / pest or weed control at 125 g/ha: scale 0 to 100 (0 no effect, 100 complete control); for pest or weed control at 125 g/ha: 125 g ai/ha
Outline: (§3)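 Preemergence: seeds sown in loam–sand blend or silt loam and sprayed with test chemicals in a non-phytotoxic surfactant-containing solvent. Postemergence: potted plants at 2–18 cm (1–4-leaf stage) sprayed with the same formulation. After 13–15 d in greenhouse, visual rating versus controls on 0 (no effect) to 100 (complete control) scale.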

[17] = test system: ragweed (common ragweed, Ambrosia elatior); test: Test C postemergence, plant response rating; details: Ambrosia artemisiifolia, post-emergence; for pest or weed control at 16 g/ha: 16 g ai/ha; for pest or weed control at 16 g/ha / pest or weed control at 31 g/ha: scale 0 to 100; for pest or weed control at 31 g/ha: 31 g ai/ha; for pest or weed control at 62 g/ha: 62 g ai/ha; for pest or weed control at 62 g/ha / pest or weed control at 125 g/ha: scale 0 to 100 (0 no effect, 100 complete control); for pest or weed control at 125 g/ha: 125 g ai/ha
Outline: as §3

[18] = test system: velvetleaf (Abutilon theophrasti); test: Test C postemergence, plant response rating; details: Abutilon theophrasti, post-emergence; for pest or weed control at 16 g/ha: 16 g ai/ha; for pest or weed control at 16 g/ha / pest or weed control at 31 g/ha: scale 0 to 100; for pest or weed control at 31 g/ha: 31 g ai/ha; for pest or weed control at 62 g/ha: 62 g ai/ha, read-out: Velvetleaf plant response rating; for pest or weed control at 62 g/ha / pest or weed control at 125 g/ha: scale 0 to 100 (0 no effect, 100 complete control); for pest or weed control at 125 g/ha: 125 g ai/ha
Outline: as §3

[19] = test system: waterhemp (common waterhemp, Amaranthus rudis); test: Test C postemergence, plant response rating; details: for Plant response rating, Waterhemp: scale 0 to 100; for Waterhemp plant response rating: scale 0 to 100 (0 no effect, 100 complete control)
Outline: as §3

[20] = Lolium multiflorum, post-emergence, 240 h, read-out: Ryegrass, Italian plant response rating (0 to 100 scale)
[21] = Bassia scoparia, post-emergence, 240 h, read-out: Kochia plant response rating (0 to 100 scale)
[22] = Amaranthus retroflexus, post-emergence, 240 h, read-out: Pigweed plant response rating (0 to 100 scale)
[23] = Ambrosia artemisiifolia, post-emergence, 240 h, read-out: Ragweed plant response rating (0 to 100 scale)
[24] = Triticum aestivum, post-emergence, 240 h, read-out: Wheat plant response rating (0 to 100 scale)
[25] = 125 g ai/ha, 0 to 100 scale, approximately 10 days

`O=C(OCCCC(F)(F)F)c1c(Br)cccc1Oc1ncc(Cl)cn1` [Compound 20, 4,4,4-trifluorobutyl 2-bromo-6-[(5-chloro-2-pyrimidinyl)oxy]benzoate] showed a pest or weed control at 125 g/ha ([1]; Lolium multiflorum, post-emergence, 240 h, 125 g ai/ha, read-out: Ryegrass, Italian plant response rating (0 to 100 scale)) of 0%, a pest or weed control at 500 g/ha [1, 20] of 40% and a pest or weed control at 125 g/ha [2] of 30%. For the same compound, the pest or weed control at 500 g/ha [2] was 100%, the pest or weed control at 125 g/ha [3] was 30% and the pest or weed control at 500 g/ha [3] was 50%. For the same compound, the plant injury at 125 g/ha [4] was 30%, the plant injury at 500 g/ha [4] was 40% and the pest or weed control at 125 g/ha [5] was 10%. For the same compound, the pest or weed control at 500 g/ha [5] was 90%, the pest or weed control at 125 g/ha [6] was 50% and the pest or weed control at 500 g/ha [6] was 100%. The pest or weed control at 125 g/ha ([7]; Bassia scoparia, post-emergence, 240 h, 125 g ai/ha, read-out: Kochia plant response rating (0 to 100 scale)) was 90%, the pest or weed control at 500 g/ha [7, 21] was 100% and the pest or weed control at 125 g/ha ([8]; Amaranthus retroflexus, post-emergence, 240 h, 125 g ai/ha, read-out: Pigweed plant response rating (0 to 100 scale)) was 100%. It also gave a pest or weed control at 500 g/ha [8, 22] of 100%, a pest or weed control at 125 g/ha ([9]; Ambrosia artemisiifolia, post-emergence, 240 h, 125 g ai/ha, read-out: Ragweed plant response rating (0 to 100 scale)) of 0% and a pest or weed control at 500 g/ha [9, 23] of 40%. The plant injury at 125 g/ha ([10]; Triticum aestivum, post-emergence, 240 h, 125 g ai/ha, read-out: Wheat plant response rating (0 to 100 scale)) was 0%, the plant injury at 500 g/ha [10, 24] was 20% and the pest or weed control at 250 g/ha [11] was 0%. The pest or weed control at 250 g/ha [12] was 30%, the plant injury at 250 g/ha [13] was 0% and the pest or weed control at 250 g/ha [14] was 40%. For the same compound, the pest or weed control at 62 g/ha [15] was 30%, the pest or weed control at 125 g/ha [15] was 85% and the pest or weed control at 16 g/ha [15] was 0%. It also gave a pest or weed control at 31 g/ha [15] of 5%, a pest or weed control at 16 g/ha [16] of 70% and a pest or weed control at 31 g/ha [16] of 60%. The pest or weed control at 62 g/ha [16] was 80%, the pest or weed control at 125 g/ha [16] was 98% and the pest or weed control at 16 g/ha [17] was 30%. For the same compound, the pest or weed control at 31 g/ha [17] was 50%, the pest or weed control at 62 g/ha [17] was 55% and the pest or weed control at 125 g/ha [17] was 60%. The pest or weed control at 16 g/ha [18] was 20%, the pest or weed control at 31 g/ha [18] was 50% and the pest or weed control at 62 g/ha [18] was 40%. For the same compound, the pest or weed control at 125 g/ha [18] was 70%, the “Plant response rating, Waterhemp” value ([19]; 16 g ai/ha) was 75 and the “Plant response rating, Waterhemp” value ([19]; 31 g ai/ha) was 95. For the same compound, the “Waterhemp plant response rating” value ([19]; 62 g ai/ha) was 90 and the “Waterhemp plant response rating” value ([19]; 125 g ai/ha) was 98.

`N#Cc1cccc(Oc2ncc(Cl)cn2)c1CCCCC(F)(F)F` [Compound 73, 3-[(5-chloro-2-pyrimidinyl)oxy]-2-(5,5,5-trifluoropentyl)benzonitrile] was tested, and the “Ryegrass, Italian plant response rating” value [1, 25] was 80, the pest or weed control at 500 g/ha [1, 20] was 100% and the pest or weed control at 125 g/ha [2] was 90%. For the same compound, the pest or weed control at 500 g/ha [2] was 100%, the pest or weed control at 125 g/ha [3] was 50% and the pest or weed control at 500 g/ha [3] was 100%. For the same compound, the plant injury at 125 g/ha [4] was 30%, the plant injury at 500 g/ha [4] was 60% and the pest or weed control at 125 g/ha [5] was 100%. The pest or weed control at 500 g/ha [5] was 100%, the pest or weed control at 125 g/ha [6] was 100% and the pest or weed control at 500 g/ha [6] was 100%. The “Kochia plant response rating” value [7, 25] was 100, the pest or weed control at 500 g/ha [7, 21] was 100% and the “Pigweed plant response rating” value [8, 25] was 100. The pest or weed control at 500 g/ha [8, 22] was 100%, the “Ragweed plant response rating” value [9, 25] was 20 and the pest or weed control at 500 g/ha [9, 23] was 30%. The “Wheat plant response rating” value [10, 25] was 20, the plant injury at 500 g/ha [10, 24] was 90% and the pest or weed control at 62 g/ha [15] was 100%. It also gave a pest or weed control at 125 g/ha [15] of 100%, a pest or weed control at 16 g/ha [15] of 15% and a pest or weed control at 31 g/ha [15] of 80%. The pest or weed control at 16 g/ha [16] was 70%, the pest or weed control at 31 g/ha [16] was 70% and the pest or weed control at 62 g/ha [16] was 75%. For the same compound, the pest or weed control at 125 g/ha [16] was 98%, the pest or weed control at 16 g/ha [17] was 50% and the pest or weed control at 31 g/ha [17] was 55%. It also gave a pest or weed control at 62 g/ha [17] of 60%, a pest or weed control at 125 g/ha [17] of 65% and a pest or weed control at 16 g/ha [18] of 40%. It also gave a pest or weed control at 31 g/ha [18] of 60%, a pest or weed control at 62 g/ha [18] of 70% and a pest or weed control at 125 g/ha [18] of 75%. For the same compound, the “Plant response rating, Waterhemp” value ([19]; 16 g ai/ha) was 85, the “Plant response rating, Waterhemp” value ([19]; 31 g ai/ha) was 98 and the “Waterhemp plant response rating” value ([19]; 62 g ai/ha) was 100. For the same compound, the “Waterhemp plant response rating” value ([19]; 125 g ai/ha) was 100.
